Patent US20250144067A1, “PERSONALIZED STARVATION THERAPY FOR CANCER” (Faeth Therapeutics, Inc., priority 2021, published 2025)
Counter-ions that a name gives are not always drawn. Like-named read-outs stand apart in the source and are kept apart here.

Columns and labels:
[1] = tested on: NCI-H292 lung cancer cells; assay: FDA drug screening, complete media vs cholesterol-free media without statin (TABLE 1); assay type: cell-based, human
[2] = tested on: NCI-H292 lung cancer cells; assay: FDA drug screening, complete media vs cholesterol-free media with simvastatin (TABLE 2); assay type: cell-based, human
[3] = NCI-H292 cells, cholesterol-free media without statin, FDA drug library screen
[4] = NCI-H292 cells, complete media, FDA drug library screen
[5] = complete vs cholesterol-free media, >0 enhanced anti-cancer activity, about 0 neutral, <0 antagonist
[6] = NCI-H292 cells, cholesterol-free media with simvastatin 0.04 μM, FDA drug library screen (TABLE 2)
[7] = NCI-H292 cells, complete media, FDA drug library screen (TABLE 2)
[8] = complete media minus cholesterol-free media + simvastatin (0.04 μM), >0 enhanced anti-cancer activity, about 0 neutral, <0 antagonist
[9] = NCI-H292 cells, cholesterol-free media without statin
[10] = complete vs cholesterol-free media, greater than 0 enhanced anti-cancer activity, about 0 neutral, below 0 antagonists
[11] = NCI-H292 cells, FDA drug library screen, cholesterol-free media with simvastatin 0.04 μM
[12] = NCI-H292 cells, FDA drug library screen, complete media
[13] = complete media minus cholesterol-free media + simvastatin, >0 enhanced anti-cancer activity, about 0 neutral, <0 antagonist
[14] = Complete minus Cholesterol-free, greater than 0 enhanced anti-cancer activity, about 0 neutral, below 0 antagonists
[15] = NCI-H292 cells in cholesterol-free media without statin
[16] = NCI-H292 cells in complete media
[17] = complete media vs cholesterol-free media + simvastatin (0.04 μM), >0 enhanced anti-cancer activity, about 0 neutral, <0 antagonist
[18] = NCI-H292 cells, FDA drug library screen, cholesterol-free media without statin
[19] = complete media minus cholesterol-free media + simvastatin, […]
[20] = Complete minus Cholesterol-free, >0 enhanced anti-cancer activity, about 0 neutral, <0 antagonist
[21] = NCI-H292 cells, FDA library drug in cholesterol-free media with simvastatin 0.04 μM
[22] = NCI-H292 cells, FDA library drug in complete media
[23] = Complete minus Cholesterol-free, greater than 0 enhanced anti-cancer activity, about 0 neutral, below 0 antagonist
[24] = NCI-H292 cells, cholesterol-free media with simvastatin 0.04 μM, cell growth value in FDA drug screen
[25] = NCI-H292 cells, complete media, cell growth value in FDA drug screen

Compound: CN1CCc2c(c3ccccc3n2Cc2ccccc2)C1 [Mebhydrolin (napadisylate)]
- Cholesterol-free [1, 3]: 1.008
- Complete [1, 4]: 1.238
- Difference [1, 5]: 0.23
- Cholesterol-free media + simvastatin (0.04 μM) [2, 6]: 0.9255
- Complete Media [2, 7]: 0.929
- Difference [2, 8]: 0.00

Compound: Cc1ncc([N+](=O)[O-])n1CC(O)CN1CCOCC1 (stereo not drawn) [Morinidazole]
- Cholesterol-free [1, 9]: 1.15
- Complete ([1]; NCI-H292 cells, complete media): 0.8164
- Difference [1, 10]: −0.33
- Cholesterol-free media + simvastatin (0.04 μM) [2, 11]: 1.535
- Complete Media [2, 12]: 1.676
- Difference [2, 13]: 0.14

Compound: Leuprolide (Acetate)
- Cholesterol-free [1]: 1
- Complete [1]: 0.6877
- Difference [1]: −0.31
- Cholesterol-free media + simvastatin (0.04 μM) [2]: 1.032
- Complete Media [2]: 1.087
- Difference [2]: 0.06

Compound: CCCSc1nc(N[C@@H]2C[C@H]2c2ccc(F)c(F)c2)c2nnn([C@@H]3C[C@H](OCCO)[C@@H](O)[C@H]3O)c2n1 [Ticagrelor]
- Difference [1, 14]: −0.72
- Cholesterol-free [1, 15]: 1.589
- Complete [1, 16]: 0.8706
- Cholesterol-free media + simvastatin (0.04 μM) [2, 11]: 0.854
- Complete Media [2, 12]: 1.275
- Difference [2, 13]: 0.42

Compound: CC(Cc1cccc(C(F)(F)F)c1)NCCOC(=O)c1ccccc1 (stereo not drawn) [Benfluorex (hydrochloride)]
- Cholesterol-free [1, 9]: 1.106
- Complete ([1]; NCI-H292 cells, complete media): 0.6694
- Difference [1, 10]: −0.44
- Cholesterol-free media + simvastatin (0.04 μM) ([2]; NCI-H292 cells, drug in cholesterol-free media with simvastatin 0.04 μM): 1.041
- Complete Media ([2]; NCI-H292 cells, drug in complete media): 0.8151
- Difference [2, 17]: −0.23

Compound: CCCS(=O)(=O)Nc1ccc(F)c(C(=O)c2c[nH]c3ncc(-c4ccc(Cl)cc4)cc23)c1F [Vemurafenib]
- Cholesterol-free [1, 3]: 0.6442
- Complete [1, 4]: 1.257
- Difference [1, 5]: 0.61
- Cholesterol-free media + simvastatin (0.04 μM) [2, 11]: 0.8006
- Complete Media [2, 12]: 0.9559
- Difference [2, 13]: 0.16

Compound: CN1CCC(=C2c3ccccc3CCn3c(C=O)cnc32)CC1 [Alcaftadine]
- Cholesterol-free [1]: 1.45
- Complete [1]: 1.003
- Difference [1]: −0.45
- Cholesterol-free media + simvastatin (0.04 μM) [2]: 1.165
- Complete Media [2]: 0.9908
- Difference [2]: −0.17

Compound: COc1ccccc1OC(=O)c1ccccc1OC(C)=O [Guacetisal]
- Difference ([1]; Complete minus Cholesterol-free, […]): −0.09
- Cholesterol-free [1, 18]: 0.837
- Complete [1, 12]: 0.7434
- Cholesterol-free media + simvastatin (0.04 μM) ([2]; NCI-H292 cells, cholesterol-free media with simvastatin 0.04 μM, […]): 1.34
- Complete Media ([2]; NCI-H292 cells, complete media, […]): 1.4
- Difference [2, 19]: 0.06

Compound: COc1ccc(C(=O)NCc2ccc(OCCN(C)C)cc2)cc1OC [Itopride (hydrochloride)]
- Difference [1, 20]: −0.04
- Cholesterol-free [1, 3]: 1.141
- Complete [1, 4]: 1.104
- Cholesterol-free media + simvastatin (0.04 μM) [2, 21]: 1.711
- Complete Media [2, 22]: 1.056
- Difference [2, 17]: −0.65

Compound: Cn1c(Cn2ccc(C(F)(F)F)c(Oc3cc(Cl)cc(C#N)c3)c2=O)n[nH]c1=O [Doravirine]
- Difference [1, 20]: 0.06
- Cholesterol-free [1, 3]: 0.8163
- Complete [1, 4]: 0.8734
- Cholesterol-free media + simvastatin (0.04 μM) [2, 11]: 1.425
- Complete Media [2, 12]: 1.562
- Difference [2, 13]: 0.14

Compound: OC[C@H]1O[C@@H](O[C@@H]2[C@@H](CO)OC(O)(CO)[C@H]2O)[C@H](O)[C@@H](O)[C@H]1O (mixture of isomers) [Lactulose]
- Difference [1, 23]: −0.16
- Cholesterol-free [1, 18]: 1.109
- Complete [1, 12]: 0.9456
- Cholesterol-free media + simvastatin (0.04 μM) [2, 24]: 0.7227
- Complete Media [2, 25]: 0.8015
- Difference [2, 13]: 0.08

Compound: CC(C(=O)O)c1ccc2c(c1)[nH]c1ccc(Cl)cc12 (stereo not drawn) [Carprofen]
- Difference [1, 23]: −0.18
- Cholesterol-free [1, 18]: 1.071
- Complete [1, 12]: 0.886
- Cholesterol-free media + simvastatin (0.04 μM) [2, 24]: 0.8634
- Complete Media [2, 25]: 0.98
- Difference [2, 13]: 0.12

Compound: Nc1ccc(S(=O)(=O)Nc2ccnn2-c2ccccc2)cc1 [Sulfaphenazole]
- Difference [1, 23]: −0.18
- Cholesterol-free [1, 18]: 1.174
- Complete [1, 12]: 0.9989
- Cholesterol-free media + simvastatin (0.04 μM) [2, 11]: 1.123
- Complete Media [2, 12]: 1.024
- Difference [2, 17]: −0.10

Compound: NCC(=O)O [Glycine]
- Difference [1, 14]: −0.56
- Cholesterol-free [1, 15]: 1.569
- Complete [1, 16]: 1.011
- Cholesterol-free media + simvastatin (0.04 μM) [2, 21]: 1.249
- Complete Media [2, 22]: 0.983
- Difference [2, 17]: −0.27

Compound: CC(=O)Oc1cc2c(s1)CCN(C(C(=O)C1CC1)c1ccccc1F)C2 (stereo not drawn) [Prasugrel]
- Cholesterol-free [1, 3]: 1.483
- Complete [1, 4]: 1.769
- Difference [1, 5]: 0.29
- Cholesterol-free media + simvastatin (0.04 μM) [2, 11]: 1.012
- Complete Media [2, 12]: 0.9091
- Difference [2, 17]: −0.10

Compound: CN(C)C(=N)N=C(N)N [Metformin (hydrochloride)]
- Cholesterol-free [1, 3]: 0.9765
- Complete [1, 4]: 1.069
- Difference [1, 5]: 0.09
- Cholesterol-free media + simvastatin (0.04 μM) [2, 24]: 0.8358
- Complete Media [2, 25]: 0.8942
- Difference [2, 13]: 0.06

Compound: CNC[C@H](O)c1ccc(O)c(O)c1.O=C(O)C(O)C(O)C(=O)O [L-Epinephrine (Bitartrate)]
- Difference [1, 23]: −0.14
- Cholesterol-free [1, 18]: 1.247
- Complete [1, 12]: 1.112
- Cholesterol-free media + simvastatin (0.04 μM) [2, 24]: 1.096
- Complete Media [2, 25]: 1.136
- Difference [2, 13]: 0.04

Compound: COc1cc2nc(N3CCN(C(=O)[C@@H]4CCCO4)CC3)nc(N)c2cc1OC [(S)-Terazosin]
- Difference [1, 20]: 0.01
- Cholesterol-free [1, 3]: 0.9099
- Complete [1, 4]: 0.9163
- Cholesterol-free media + simvastatin (0.04 μM) [2, 11]: 0.9768
- Complete Media [2, 12]: 0.8794
- Difference [2, 17]: −0.10

Compound: C=C1CC[C@@H]2[C@](C)(COC(=O)CCC(=O)[O-])[C@H](OC(=O)CCC(=O)O)CC[C@@]2(C)[C@@H]1/C=C/C1=CCOC1=O.[K+] [Kalii Dehydrographolidi Succinas]
- Cholesterol-free [1, 9]: 1.388
- Complete ([1]; NCI-H292 cells, complete media): 1.081
- Difference ([1]; complete vs cholesterol-free media, […]): −0.31
- Cholesterol-free media + simvastatin (0.04 μM) [2, 11]: 0.8904
- Complete Media [2, 12]: 1.183
- Difference [2, 19]: 0.29

Compound: CCCc1cc(=O)[nH]c(=S)[nH]1 [Propylthiouracil]
- Difference [1, 20]: −0.23
- Cholesterol-free [1, 9]: 1.082
- Complete ([1]; NCI-H292 cells, complete media): 0.8473
- Cholesterol-free media + simvastatin (0.04 μM) [2, 6]: 0.9529
- Complete Media [2, 7]: 0.939
- Difference [2, 8]: −0.01

Compound: CC(=O)[C@H]1CC[C@H]2[C@@H]3C=CC4=CC(=O)CC[C@@]4(C)[C@@H]3CC[C@]12C [Dydrogesterone]
- Difference [1, 14]: −0.68
- Cholesterol-free [1, 15]: 1.745
- Complete [1, 16]: 1.064
- Cholesterol-free media + simvastatin (0.04 μM) [2, 24]: 1.183
- Complete Media [2, 25]: 1.295
- Difference [2, 13]: 0.11

Compound: O=[N+]([O-])C(Br)(CO)CO [Bronopol]
- Difference [1, 14]: −0.52
- Cholesterol-free [1, 15]: 1.461
- Complete [1, 16]: 0.9389
- Cholesterol-free media + simvastatin (0.04 μM) [2, 24]: 0.8221
- Complete Media [2, 25]: 0.9082
- Difference [2, 13]: 0.09

Compound: O=C(NCCN1CCOCC1)c1ccc(Cl)cc1 [Moclobemide]
- Difference [1, 20]: −0.27
- Cholesterol-free [1, 9]: 1.09
- Complete ([1]; NCI-H292 cells, complete media): 0.8213
- Cholesterol-free media + simvastatin (0.04 μM) [2, 6]: 0.9196
- Complete Media [2, 7]: 0.8957
- Difference [2, 8]: −0.02
